Assay results: the NIST ThermoML archive (doi:10.1021/je301132p)

Experiment: mn = molality of the nth substance listed, in mol/kg
Conditions: Liquid, Vibrating tube method

O=S(=O)([O-])[O-].[Na+].[Na+] [sodium sulfate] + O
mass density [kg/m3]
Conditions	298.11 K	323.13 K	348.12 K	373.12 K	398.08 K	423.07 K	448.03 K	473.02 K
1100 kPa, m1 = 0.783	1089.58	1077.81	1063.59	1047	1028.03	1006.98	983.81	–
1100 kPa, m1 = 1.502	1164.61	1151.3	1136.41	1119.57	1100.73	1080.12	1057.71	–
10100 kPa, m1 = 0.783	1092.97	1081.15	1067.05	1050.62	1032.04	1011.36	988.74	963.68
10100 kPa, m1 = 1.502	1167.61	1154.41	1139.53	1122.86	1104.32	1084.06	1062.06	1038.23
20100 kPa, m1 = 0.783	1096.83	1084.87	1070.84	1054.57	1036.41	1016.13	994.07	969.72
20100 kPa, m1 = 1.502	1170.98	1157.75	1143.04	1126.48	1108.32	1088.31	1067	1043.59
30100 kPa, m1 = 0.783	1100.47	1088.46	1074.53	1058.52	1040.58	1020.77	998.93	975.48
30100 kPa, m1 = 1.502	1174.24	1161	1146.45	1130.05	1112.1	1092.62	1071.61	1048.78
40100 kPa, m1 = 0.783	1104.07	1092.02	1078.24	1062.4	1044.61	1025.11	1004.1	981.03
40100 kPa, m1 = 1.502	1177.46	1164.24	1149.78	1133.55	1115.8	1096.64	1076.11	1053.91
50100 kPa, m1 = 0.783	1107.68	1095.52	1081.79	1066.07	1048.55	1029.51	1008.75	986.37
50100 kPa, m1 = 1.502	1180.69	1167.41	1153.06	1136.94	1119.47	1100.57	1080.33	1058.64
60100 kPa, m1 = 0.783	1111.07	1098.98	1085.27	1069.75	1052.44	1033.66	1013.33	991.46
60100 kPa, m1 = 1.502	1183.64	1170.49	1156.2	1140.35	1123.02	1104.44	1084.59	1063.34
68600 kPa, m1 = 0.783	1113.99	1101.8	1088.2	1072.82	1055.65	1037.1	1017.15	995.65
68600 kPa, m1 = 1.502	1186.24	1173.08	1158.87	1143.15	1125.97	1107.66	1088.14	1067.18

O=C([O-])O.[Na+] [sodium bicarbonate] + O
mass density [kg/m3]
Conditions	298.11 K	323.13 K	348.12 K	373.12 K	398.08 K	423.07 K	448.03 K	473.02 K
1100 kPa, m1 = 0.507	1026.64	1016.27	1002.67	986.45	967.23	945.6	921.6	–
1100 kPa, m1 = 1	1053.32	1042.1	1028.17	1011.61	992.49	971.16	947.75	–
10100 kPa, m1 = 0.507	1030.34	1019.92	1006.34	990.43	971.5	950.33	926.98	900.8
10100 kPa, m1 = 1	1056.9	1045.63	1031.76	1015.42	996.59	975.62	952.76	927.94
20100 kPa, m1 = 0.507	1034.56	1023.96	1010.5	994.75	976.19	955.52	932.57	907.44
20100 kPa, m1 = 1	1060.94	1049.49	1035.74	1019.51	1001.1	980.58	958.38	934.21
30100 kPa, m1 = 0.507	1038.58	1027.87	1014.5	998.96	980.67	960.51	938.23	913.71
30100 kPa, m1 = 1	1064.78	1053.27	1039.62	1023.49	1005.36	985.4	963.67	940.3
40100 kPa, m1 = 0.507	1042.55	1031.74	1018.42	1003.05	985.06	965.22	943.62	919.81
40100 kPa, m1 = 1	1068.62	1057.11	1043.26	1027.56	1009.57	989.89	968.83	946.08
50100 kPa, m1 = 0.507	1046.47	1035.56	1022.29	1007.05	989.37	969.93	948.68	925.55
50100 kPa, m1 = 1	1072.42	1060.81	1047.06	1031.43	1013.71	994.52	973.77	951.65
60100 kPa, m1 = 0.507	1050.19	1039.28	1026.03	1010.74	993.56	974.48	953.67	931
60100 kPa, m1 = 1	1075.95	1064.4	1050.67	1035.29	1017.88	998.85	978.58	956.83
68600 kPa, m1 = 0.507	1053.46	1042.41	1029.22	1014.16	996.98	978.13	957.69	935.54
68600 kPa, m1 = 1	1079.05	1067.35	1053.84	1038.44	1021.02	1002.43	982.48	961.25
